{"source": "paper PMC5218480", "about": "(PLoS ONE, 2017)", "tested_on": "MV-4-11 cells", "experiment": "Gene expression microarray analysis (Affymetrix PrimeView) and GSEA", "type": "cell-based, human", "design": "RFU PODN (11730768_x_at) / Fold change /veh PODN (11730768_x_at) / RFU LINC00158 (11744669_a_at) / Fold change /veh LINC00158 (11744669_a_at) / RFU DUSP10 (11751237_a_at) / Fold change /veh DUSP10 (11751237_a_at) / RFU ID3 (11757404_x_at) / Fold change /veh ID3 (11757404_x_at) / RFU PLEKHG5 (11737974_s_at) / Fold change /veh PLEKHG5 (11737974_s_at) / RFU LRRC4B (11730491_at) / Fold change /veh LRRC4B (11730491_at) / RFU GIMAP4 (11747438_a_at) / Fold change /veh GIMAP4 (11747438_a_at) / RFU KRT8 (11758183_x_at) / Fold change /veh KRT8 (11758183_x_at) / RFU CNN1 (11734310_a_at) / Fold change /veh CNN1 (11734310_a_at) / RFU VPS37D (11726825_at) / Fold change /veh VPS37D (11726825_at) / RFU C10orf10 (11716522_x_at) / Fold change /veh C10orf10 (11716522_x_at) / RFU KIR2DL2 /// KIR2DL4 /// KIR2DL5A /// KIR2DL5B /// KIR2DS1 /// KIR2DS2 /// KIR2DS3 /// KIR2DS4 /// KIR3DL3 /// KIR3DL3 /// KIR3DS1 (11738374_at) / Fold change /veh KIR2DL2 /// KIR2DL4 /// KIR2DL5A /// KIR2DL5B /// KIR2DS1 /// KIR2DS2 /// KIR2DS3 /// KIR2DS4 /// KIR3DL3 /// KIR3DL3 /// KIR3DS1 (11738374_at) / RFU C1QL1 (11718748_at) / Fold change /veh C1QL1 (11718748_at) / RFU TMPRSS4 (11747572_a_at) / Fold change /veh TMPRSS4 (11747572_a_at) / RFU HAMP (11756126_x_at) / Fold change /veh HAMP (11756126_x_at) / RFU RNFT2 (11725882_a_at) / Fold change /veh RNFT2 (11725882_a_at) / RFU NR4A2 (11747474_a_at) / Fold change /veh NR4A2 (11747474_a_at) / RFU ABCC12 (11746883_a_at) / Fold change /veh ABCC12 (11746883_a_at) / RFU TMEM136 (11760407_x_at) / Fold change /veh TMEM136 (11760407_x_at) / RFU CLDN22 /// WWC2 (11732394_at) / Fold change /veh CLDN22 /// WWC2 (11732394_at) / RFU HLA-DPB1 (11760878_x_at) / Fold change /veh HLA-DPB1 (11760878_x_at) / RFU SPINT1 (11716480_a_at) / Fold change /veh SPINT1 (11716480_a_at) / RFU GAP43 (11754022_s_at) / Fold change /veh GAP43 (11754022_s_at) / RFU A4GNT (11735810_at) / Fold change /veh A4GNT (11735810_at) / RFU PRB3 (11715151_x_at) / Fold change /veh PRB3 (11715151_x_at) / RFU TUBB4B (11761932_at) / Fold change /veh TUBB4B (11761932_at) / RFU CAPN14 (11732068_a_at) / Fold change /veh CAPN14 (11732068_a_at) / RFU TMCC2 (11721928_a_at) / Fold change /veh TMCC2 (11721928_a_at) / RFU IRGQ (11745062_a_at) / Fold change /veh IRGQ (11745062_a_at) / RFU FAM174B (11720279_a_at) / Fold change /veh FAM174B (11720279_a_at) / RFU TMPRSS4 (11748680_a_at) / Fold change /veh TMPRSS4 (11748680_a_at) / RFU FAM212B (11763350_a_at) / Fold change /veh FAM212B (11763350_a_at) / RFU PLEKHG5 (11743358_a_at) / Fold change /veh PLEKHG5 (11743358_a_at) / RFU ZSCAN30 (11745921_a_at) / Fold change /veh ZSCAN30 (11745921_a_at) / RFU CMKLR1 (11741424_a_at) / Fold change /veh CMKLR1 (11741424_a_at) / RFU LOC101060620 /// MAPK8IP1 (11723275_at) / Fold change /veh LOC101060620 /// MAPK8IP1 (11723275_at) / RFU SPTSSB (11747773_x_at) / Fold change /veh SPTSSB (11747773_x_at) / RFU PRSS12 (11739890_at) / Fold change /veh PRSS12 (11739890_at) / RFU BIN1 (11741810_x_at) / Fold change /veh BIN1 (11741810_x_at) / RFU WNT11 (11732464_a_at) / Fold change /veh WNT11 (11732464_a_at) / RFU C10orf10 (11716521_a_at) / Fold change /veh C10orf10 (11716521_a_at) / RFU C5orf56 (11738089_at) / Fold change /veh C5orf56 (11738089_at) / RFU CYB561 (11721691_x_at) / Fold change /veh CYB561 (11721691_x_at) / RFU ANKRD19P (11752326_a_at) / Fold change /veh ANKRD19P (11752326_a_at) / RFU OR2T12 /// OR2T33 /// OR2T8 (11738714_s_at) / Fold change /veh OR2T12 /// OR2T33 /// OR2T8 (11738714_s_at) / RFU VCAN (11748164_a_at) / Fold change /veh VCAN (11748164_a_at) / RFU JSRP1 (11732532_at) / Fold change /veh JSRP1 (11732532_at) / RFU KRTAP10-11 (11738290_x_at) / Fold change /veh KRTAP10-11 (11738290_x_at) / RFU MYO3A (11730013_a_at) / Fold change /veh MYO3A (11730013_a_at) / RFU EBF3 (11725865_a_at) / Fold change /veh EBF3 (11725865_a_at) / RFU CAMK2N1 (11719241_x_at) / Fold change /veh CAMK2N1 (11719241_x_at) / RFU C5orf56 (11738088_a_at) / Fold change /veh C5orf56 (11738088_a_at) / RFU OLFML3 (11715873_a_at) / Fold change /veh OLFML3 (11715873_a_at) / RFU LOC100653217 /// NTM (11731650_a_at) / Fold change /veh LOC100653217 /// NTM (11731650_a_at) / RFU MAPK11 (11762145_a_at) / Fold change /veh MAPK11 (11762145_a_at) / RFU FIZ1 (11724087_x_at) / Fold change /veh FIZ1 (11724087_x_at) / RFU OASL (11726364_x_at) / Fold change /veh OASL (11726364_x_at) / RFU SOX15 (11748057_x_at) / Fold change /veh SOX15 (11748057_x_at) / RFU CD79A (11719716_a_at) / Fold change /veh CD79A (11719716_a_at) / RFU HIST1H1D (11736915_at) / Fold change /veh HIST1H1D (11736915_at) / RFU CASKIN2 (11723855_a_at) / Fold change /veh CASKIN2 (11723855_a_at) / RFU LOC730098 (11760151_x_at) / Fold change /veh LOC730098 (11760151_x_at) / RFU OR4N2 (11742367_at) / Fold change /veh OR4N2 (11742367_at) / RFU PRRT2 (11749266_a_at) / Fold change /veh PRRT2 (11749266_a_at) / RFU SNX32 (11753110_a_at) / Fold change /veh SNX32 (11753110_a_at) / RFU CDHR5 (11726645_a_at) / Fold change /veh CDHR5 (11726645_a_at) / RFU RCAN1 (11760418_a_at) / Fold change /veh RCAN1 (11760418_a_at) / RFU FAM167A (11723789_a_at) / Fold change /veh FAM167A (11723789_a_at) / RFU FAM26E (11764081_at) / Fold change /veh FAM26E (11764081_at) / RFU ISYNA1 (11749810_s_at) / Fold change /veh ISYNA1 (11749810_s_at) / RFU ACY1 (11761880_at) / Fold change /veh ACY1 (11761880_at) / RFU 11764098_at / Fold change /veh 11764098_at / RFU SAMD14 (11745864_x_at) / Fold change /veh SAMD14 (11745864_x_at) / RFU NPB (11741838_a_at) / Fold change /veh NPB (11741838_a_at) / RFU TMPRSS6 (11731388_a_at) / Fold change /veh TMPRSS6 (11731388_a_at) / RFU KRTAP10-2 (11738614_at) / Fold change /veh KRTAP10-2 (11738614_at) / RFU ARHGAP8 /// PRR5-ARHGAP8 (11727945_x_at) / Fold change /veh ARHGAP8 /// PRR5-ARHGAP8 (11727945_x_at) / RFU KRTAP5-7 /// NADSYN1 (11734609_at) / Fold change /veh KRTAP5-7 /// NADSYN1 (11734609_at) / RFU RASL12 (11751679_a_at) / Fold change /veh RASL12 (11751679_a_at) / RFU CDKN2B (11736163_a_at) / Fold change /veh CDKN2B (11736163_a_at) / RFU PRF1 (11729649_at) / Fold change /veh PRF1 (11729649_at) / RFU, ZNF638 /// ZNF638-IT1 / Fold change vs veh, ZNF638 /// ZNF638-IT1 / RFU, PANK3 / Fold change vs veh, PANK3 / RFU, SH3YL1 / Fold change vs veh, SH3YL1 / RFU, ZEB2 / Fold change vs veh, ZEB2 / RFU, NRIP1 / Fold change vs veh, NRIP1 / RFU, PTTG1IP / Fold change vs veh, PTTG1IP / RFU, CAPN2 / Fold change vs veh, CAPN2 / RFU, MED14 / Fold change vs veh, MED14 / RFU, SNORA58 / Fold change vs veh, SNORA58 / RFU, C1orf63 / Fold change vs veh, C1orf63 / RFU, LRRFIP1 / Fold change vs veh, LRRFIP1 / RFU, NDUFAF7 / Fold change vs veh, NDUFAF7 / RFU, SLC12A2 / Fold change vs veh, SLC12A2 / RFU, IBTK / Fold change vs veh, IBTK / RFU, ESF1 / Fold change vs veh, ESF1 / Fold change vs veh, TMEM50B / RFU, TAOK1 / Fold change vs veh, TAOK1 / RFU, ACBD3 / Fold change vs veh, ACBD3 / RFU, TMA16 / Fold change vs veh, TMA16 / RFU, RWDD3 / Fold change vs veh, RWDD3 / RFU, BCAT1 / Fold change vs veh, BCAT1 / RFU, EDEM3 / Fold change vs veh, EDEM3 / RFU, TMEM33 / Fold change vs veh, TMEM33 / RFU, WDR75 / Fold change vs veh, WDR75 / RFU, AHCTF1 / Fold change vs veh, AHCTF1 / RFU, TFRC / Fold change vs veh, TFRC / RFU, ZDHHC17 / Fold change vs veh, ZDHHC17 / RFU, NOM1 / Fold change vs veh, NOM1 / RFU, ARL8B / Fold change vs veh, ARL8B / RFU, ZBTB11 / Fold change vs veh, ZBTB11 / RFU, TAMM41 / Fold change vs veh, TAMM41 / RFU, KIAA1704 /// LOC100996395 / Fold change vs veh, KIAA1704 /// LOC100996395 / RFU, ING1 / Fold change vs veh, ING1 / RFU, TRMT61B / Fold change vs veh, TRMT61B / RFU, FUBP3 / Fold change vs veh, FUBP3 / RFU, TP53 / Fold change vs veh, TP53 / RFU, TNKS2 / Fold change vs veh, TNKS2 / RFU, ZFP14 / Fold change vs veh, ZFP14 / RFU, ACTR2 / Fold change vs veh, ACTR2 / RFU, PPP3R1 / Fold change vs veh, PPP3R1 / RFU, PIK3R1 / Fold change vs veh, PIK3R1 / RFU, HNRNPA1 / Fold change vs veh, HNRNPA1 / RFU, RNF170 / Fold change vs veh, RNF170 / RFU, ZNF28 / Fold change vs veh, ZNF28 / RFU, RNGTT / Fold change vs veh, RNGTT / RFU, OGT / Fold change vs veh, OGT / RFU, BRD1 / Fold change vs veh, BRD1 / RFU, MARS / Fold change vs veh, MARS / RFU, ZNF655 / Fold change vs veh, ZNF655 / RFU, FAHD1 / Fold change vs veh, FAHD1 / RFU, BDP1 / Fold change vs veh, BDP1 / RFU, LRRCC1 / Fold change vs veh, LRRCC1 / RFU, ARID1A / Fold change vs veh, ARID1A / RFU, ZNF146 / Fold change vs veh, ZNF146 / RFU, ZNF330 / Fold change vs veh, ZNF330 / RFU, GPN3 / Fold change vs veh, GPN3 / RFU, C9orf123 / Fold change vs veh, C9orf123 / RFU, N4BP2L2 / Fold change vs veh, N4BP2L2 / RFU, ARFIP1 / Fold change vs veh, ARFIP1 / RFU, FAM179B / Fold change vs veh, FAM179B / RFU, BCL10 / Fold change vs veh, BCL10 / RFU, UHRF1BP1L / Fold change vs veh, UHRF1BP1L / RFU, BET1 / Fold change vs veh, BET1 / RFU, CNOT2 / Fold change vs veh, CNOT2 / RFU, ZNF268 / Fold change vs veh, ZNF268 / Fold change vs veh, ZNF507 / RFU, DGCR2 / Fold change vs veh, DGCR2 / RFU, WDSUB1 / Fold change vs veh, WDSUB1 / Fold change vs veh, HSP90B1 /// MIR3652 / RFU, ADSS / Fold change vs veh, ADSS / RFU, GK / Fold change vs veh, GK / RFU, ZNF148 / Fold change vs veh, ZNF148 / RFU, TAF9 / Fold change vs veh, TAF9 / RFU, SLC1A5 / Fold change vs veh, SLC1A5 / RFU, SLMO2 / Fold change vs veh, SLMO2 / RFU, ABCC4 / Fold change vs veh, ABCC4 / RFU, LOC101060439 /// RAP1B / Fold change vs veh, LOC101060439 /// RAP1B / RFU, RFX7 / Fold change vs veh, RFX7 / RFU, GTPBP10 / Fold change vs veh, GTPBP10 / RFU, CNEP1R1 / Fold change vs veh, CNEP1R1 / RFU, BIVM-ERCC5 /// ERCC5 / Fold change vs veh, BIVM-ERCC5 /// ERCC5 / RFU, ILF3 / Fold change vs veh, ILF3 / RFU 11762660_at / Fold change /veh 11762660_at / RFU VCAN (11757783_s_at) / Fold change /veh VCAN (11757783_s_at) / RFU DDX43 (11728927_at) / Fold change /veh DDX43 (11728927_at) / RFU KRT8 (11758188_x_at) / Fold change /veh KRT8 (11758188_x_at) / RFU NKD1 (11759106_at) / Fold change /veh NKD1 (11759106_at) / RFU SRD5A1 (11742802_a_at) / Fold change /veh SRD5A1 (11742802_a_at) / RFU TPSAB1 /// TPSB2 (11721975_s_at) / Fold change /veh TPSAB1 /// TPSB2 (11721975_s_at) / RFU GSTM3 (11746129_a_at) / Fold change /veh GSTM3 (11746129_a_at) / RFU IL23R (11737362_x_at) / Fold change /veh IL23R (11737362_x_at) / RFU TMEM51 (11727254_a_at) / Fold change /veh TMEM51 (11727254_a_at) / RFU PIWIL2 (11732686_x_at) / Fold change /veh PIWIL2 (11732686_x_at) / RFU ORM1 (11744905_x_at) / Fold change /veh ORM1 (11744905_x_at) / RFU CCDC152 (11743942_at) / Fold change /veh CCDC152 (11743942_at) / RFU ECM1 (11717891_a_at) / Fold change /veh ECM1 (11717891_a_at) / RFU IL23R (11748794_a_at) / Fold change /veh IL23R (11748794_a_at) / RFU TNFAIP8L3 (11732012_x_at) / Fold change /veh TNFAIP8L3 (11732012_x_at) / RFU MBOAT4 (11741988_at) / Fold change /veh MBOAT4 (11741988_at) / RFU 11764193_at / Fold change /veh 11764193_at / RFU TMEM53 (11763286_at) / Fold change /veh TMEM53 (11763286_at) / RFU MAGEB2 (11727129_at) / Fold change /veh MAGEB2 (11727129_at) / RFU TMEM200A (11744735_a_at) / Fold change /veh TMEM200A (11744735_a_at) / RFU CCDC152 (11751479_a_at) / Fold change /veh CCDC152 (11751479_a_at) / RFU FAM211A (11726209_a_at) / Fold change /veh FAM211A (11726209_a_at) / RFU RGS16 (11746705_a_at) / Fold change /veh RGS16 (11746705_a_at) / RFU VCAN (11755009_s_at) / Fold change /veh VCAN (11755009_s_at) / RFU RHOB (11743442_s_at) / Fold change /veh RHOB (11743442_s_at) / RFU RGS16 (11720943_a_at) / Fold change /veh RGS16 (11720943_a_at) / RFU RGS16 (11720944_at) / Fold change /veh RGS16 (11720944_at) / RFU, VPS4B / Fold change vs veh, VPS4B / RFU, CREB1 / Fold change vs veh, CREB1 / RFU, DNAJC13 / Fold change vs veh, DNAJC13 / RFU, GNAQ / Fold change vs veh, GNAQ / RFU, CDK5R1 / Fold change vs veh, CDK5R1 / RFU, ZRANB3 / Fold change vs veh, ZRANB3 / RFU, CUL4A / Fold change vs veh, CUL4A / RFU, CCNY / Fold change vs veh, CCNY / RFU, UFL1 / Fold change vs veh, UFL1 / RFU, COG3 / Fold change vs veh, COG3 / RFU, DIAPH2 / Fold change vs veh, DIAPH2 / RFU, SKA2 / Fold change vs veh, SKA2 / RFU, AFF3 / Fold change vs veh, AFF3 / RFU, LMF1 / Fold change vs veh, LMF1 / RFU, IPO11 / Fold change vs veh, IPO11 / RFU, DFFB / Fold change vs veh, DFFB / RFU, FOXP1 / Fold change vs veh, FOXP1 / RFU, CARD8 / Fold change vs veh, CARD8 / RFU, STRN3 / Fold change vs veh, STRN3 / RFU, ADK / Fold change vs veh, ADK / RFU, RASSF2 / Fold change vs veh, RASSF2 / RFU, WIPF1 / Fold change vs veh, WIPF1 / RFU, LARP1B / Fold change vs veh, LARP1B / RFU, RASA1 / Fold change vs veh, RASA1 / RFU, RB1 / Fold change vs veh, RB1 / RFU, PPFIA1 / Fold change vs veh, PPFIA1 / RFU, MAT2A / Fold change vs veh, MAT2A / RFU, CCT5 / Fold change vs veh, CCT5 / RFU, WDR92 / Fold change vs veh, WDR92 / RFU, CUX1 / Fold change vs veh, CUX1 / RFU, TTC7A / Fold change vs veh, TTC7A / RFU, TMEM135 / Fold change vs veh, TMEM135 / RFU, DEPTOR / Fold change vs veh, DEPTOR / RFU, CPM / Fold change vs veh, CPM / RFU, DNAJB6 / Fold change vs veh, DNAJB6 / RFU, CACNA2D3 / Fold change vs veh, CACNA2D3 / RFU, DTX4 / Fold change vs veh, DTX4 / RFU, TFCP2 / Fold change vs veh, TFCP2 / RFU, GMCL1 /// GMCL1P1 / Fold change vs veh, GMCL1 /// GMCL1P1 / RFU, AEBP2 / Fold change vs veh, AEBP2 / RFU, SNHG1 /// SNORD22 /// SNORD25 /// SNORD26 /// SNORD27 /// SNORD28 /// SNORD29 /// SNORD31 / Fold change vs veh, SNHG1 /// SNORD22 /// SNORD25 /// SNORD26 /// SNORD27 /// SNORD28 /// SNORD29 /// SNORD31 / Fold change (Aza/veh), C12orf56 (ProbeSet 11735607_a_at) / Fold change (ACY-1035/veh), C12orf56 (ProbeSet 11735607_a_at) / Fold change (Aza/veh), FGFR1OP (ProbeSet 11751329_s_at) / Fold change (ACY-1035/veh), FGFR1OP (ProbeSet 11751329_s_at) / Fold change (Aza/veh), VPS36 (ProbeSet 11739960_a_at) / Fold change (ACY-1035/veh), VPS36 (ProbeSet 11739960_a_at) / RFU SYPL1 (11715823_x_at) / Fold change /veh SYPL1 (11715823_x_at) / RFU IGFBP7 (11715501_s_at) / Fold change /veh IGFBP7 (11715501_s_at) / RFU REEP3 (11722064_at) / Fold change /veh REEP3 (11722064_at) / RFU IGLL1 (11728026_x_at) / Fold change /veh IGLL1 (11728026_x_at): dose or concentration left out as unconfirmed", "conditions": "MV-4-11 cells, 48 hours"}
{"smiles": "Nc1ncn([C@@H]2O[C@H](CO)[C@@H](O)[C@H]2O)c(=O)n1", "note": "[azacitidine]", "values": [{"measurement": "Fold change /veh CLDN22 /// WWC2 (11732394_at)", "result": 1.14}]}
